Measurements published in ChEMBL document CHEMBL3352547, “A concise diastereoselective approach to enantioenriched substituted piperidines and their in vitro cytotoxicity evaluation” (Bioorg Med Chem Lett, 2014).

Key:
Assay type in all cases: functional, cell-based; call rule not given here
HeLa = test: Cytotoxicity against human HeLa cells by MTT assay
DU-145 = test: Cytotoxicity against human DU145 cells by MTT assay
MCF7 = test: Cytotoxicity against human MCF7 cells by MTT assay
A549 = test: Cytotoxicity against human A549 cells by MTT assay
[1] = Homo sapiens, HeLa, read-out: IC50
[2] = Homo sapiens, DU-145, read-out: IC50
[3] = Homo sapiens, MCF7, read-out: IC50
[4] = Homo sapiens, A549, read-out: IC50

SMILES: COC(=O)C[C@@H]1C[C@H](O)[C@H](C)[C@H](c2ccccc2)N1
- IC50 (HeLa; [1]): 14.2 µM
- IC50 (DU-145; [2]): 11.3 µM
- IC50 (MCF7; [3]): 12.3 µM
- IC50 (A549; [4]): 20.5 µM

SMILES: COC(=O)C[C@@H]1C[C@@H](O)[C@H](C)[C@H](c2ccccc2)N1
- IC50 (HeLa; [1]): 6.5 µM
- IC50 (DU-145; [2]): 6.3 µM
- IC50 (MCF7; [3]): 5.4 µM
- IC50 (A549; [4]): 8.5 µM

SMILES: COC(=O)C[C@H]1C[C@@H](O)[C@@H](C)[C@@H](c2ccc(C)cc2)N1
- IC50 (HeLa; [1]): 13.4 µM
- IC50 (DU-145; [2]): 49.7 µM
- IC50 (MCF7; [3]): 12.2 µM
- IC50 (A549; [4]): 29 µM

SMILES: COC(=O)C[C@H]1C[C@H](O)[C@@H](C)[C@@H](c2ccc(C)cc2)N1
- IC50 (HeLa; hela): Not Active
- IC50 (DU-145; [2]): 330 µM
- IC50 (MCF7; mcf7): Not Active
- IC50 (A549; [4]): 97.6 µM

SMILES: COC(=O)C[C@H]1C[C@@H](O)[C@@H](C)[C@@H](c2ccc(C(C)C)cc2)N1
- IC50 (HeLa; hela): Not Active
- IC50 (DU-145; [2]): 110 µM
- IC50 (MCF7; mcf7): Not Active
- IC50 (A549; a549): Not Active

SMILES: COC(=O)C[C@H]1C[C@H](O)[C@@H](C)[C@@H](c2ccc(C(C)C)cc2)N1
- IC50 (HeLa; [1]): 18.2 µM
- IC50 (DU-145; [2]): 27.4 µM
- IC50 (MCF7; [3]): 17.1 µM
- IC50 (A549; a549): Not Active

SMILES: COC(=O)C[C@H]1C[C@@H](O)[C@@H](C)[C@@H](c2ccc(OC)cc2)N1
- IC50 (HeLa; [1]): 11.5 µM
- IC50 (DU-145; [2]): 12.6 µM
- IC50 (MCF7; [3]): 10.4 µM
- IC50 (A549; [4]): 23.5 µM

SMILES: COC(=O)C[C@H]1C[C@H](O)[C@@H](C)[C@@H](c2ccc(OC)cc2)N1
- IC50 (HeLa; [1]): 5.3 µM
- IC50 (DU-145; [2]): 6.5 µM
- IC50 (MCF7; [3]): 5.1 µM
- IC50 (A549; [4]): 5.4 µM

SMILES: COC(=O)C[C@H]1C[C@@H](O)[C@@H](C)[C@@H](c2ccc(F)cc2)N1
- IC50 (HeLa; [1]): 19.8 µM
- IC50 (DU-145; [2]): 51.7 µM
- IC50 (MCF7; [3]): 15.6 µM
- IC50 (A549; [4]): 26.6 µM

SMILES: COC(=O)C[C@H]1C[C@H](O)[C@@H](C)[C@@H](c2ccc(F)cc2)N1
- IC50 (HeLa; [1]): 17.4 µM
- IC50 (DU-145; du-145): Not Active
- IC50 (MCF7; [3]): 18.2 µM
- IC50 (A549; [4]): 17.2 µM

SMILES: COC(=O)C[C@H]1C[C@@H](O)[C@H](C)[C@@H](c2ccccc2)N1
- IC50 (HeLa; [1]): 35.2 µM
- IC50 (DU-145; [2]): 64.1 µM
- IC50 (MCF7; [3]): 35.6 µM
- IC50 (A549; [4]): 34.6 µM

SMILES: COC(=O)C[C@H]1C[C@H](O)[C@H](C)[C@@H](c2ccccc2)N1
- IC50 (HeLa; [1]): 41.1 µM
- IC50 (DU-145; du-145): Not Active
- IC50 (MCF7; mcf7): Not Active
- IC50 (A549; [4]): 69.2 µM

SMILES: C[C@H]1[C@H](O)C[C@@H](CCO)N[C@H]1c1ccccc1
- IC50 (HeLa; [1]): 31.5 µM
- IC50 (DU-145; [2]): 41.6 µM
- IC50 (MCF7; [3]): 39.8 µM
- IC50 (A549; [4]): 31.2 µM

SMILES: C[C@H]1[C@H](O)C[C@@H](CC(=O)O)N[C@H]1c1ccccc1
- IC50 (HeLa; [1]): 33.4 µM
- IC50 (DU-145; [2]): 46.5 µM
- IC50 (MCF7; [3]): 23.1 µM
- IC50 (A549; [4]): 28.9 µM

SMILES: COc1ccc([C@H]2N[C@@H](CCO)C[C@H](O)[C@H]2C)cc1
- IC50 (HeLa; [1]): 16.5 µM
- IC50 (DU-145; [2]): 14.8 µM
- IC50 (MCF7; [3]): 13.7 µM
- IC50 (A549; [4]): 17.6 µM

SMILES: COc1ccc([C@H]2N[C@@H](CC(=O)O)C[C@H](O)[C@H]2C)cc1
- IC50 (HeLa; [1]): 19.9 µM
- IC50 (DU-145; [2]): 15.7 µM
- IC50 (MCF7; [3]): 12.5 µM
- IC50 (A549; [4]): 20.1 µM

SMILES: COc1cccc2c1C(=O)c1c(O)c3c(c(O)c1C2=O)C[C@@](O)(C(=O)CO)C[C@@H]3O[C@H]1C[C@H](N)[C@H](O)[C@H](C)O1 [DOXORUBICIN]
- IC50 (HeLa; [1]): 0.7 µM
- IC50 (MCF7; [3]): 0.6 µM
- IC50 (A549; [4]): 0.6 µM
